Among the data in PubChem BioAssay (NCI) are TGI values, retold here.

SMILES strings stand for the structures.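 Compound exposure: 48 hours, 5 concentrations, 96-well plates. TGI denotes the concentration required for complete inhibition of growth.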

Holding throughout (assay): NCI anticancer screen, dose series, 48 h
The subject of assay [1] is UACC-62 melanoma.
Assay [2] deals with MDA-MB-231 breast.
Assay [3] deals with NCI-H460 lung.
In assay [4] the test system is RPMI-8226 leukemia.
For assay [5], the system named is MDA-MB-435.
For assay [6], the system named is DU-145 prostate.
Assay [7] has as its system CCRF-CEM leukemia.
For assay [8], the system named is NCI/ADR-RES ovarian.
For assay [9], the system named is HL-60(TB) leukemia.

Turning to `Cc1cn(C2CCC(/C=N\O)O2)c(=O)[nH]c1=O` (stereo not drawn), the TGI in assay [1], in assay [2], in assay [3], in assay [4], in assay [5] and in assay [6] was > 100 µM in each case. The TGI in [7] and in [8] was > 100 µM in each case.
As to `CN1CN(c2ccccc2)C2(CCN(CCCSc3ccccc3NC(=O)/C=C/c3ccccc3)CC2)C1=O`, the TGI in assay [1] worked out at 6.37 µM; in assay [2], 3.32 µM; in [9], 23.8 µM; in assay [3], 14.8 µM; in [5], 6.91 µM; in assay [6] it was 18.2 µM. Also, the TGI in [7] is > 100 µM; in assay [8], 22.4 µM.
For the compound `CC(OC(=O)NCn1cc(-c2ccccc2)nn1)c1ccccc1` (stereo not drawn), the TGI in assay [2] is > 100 µM; in [9] it was 75 µM; in assay [3] it was > 100 µM; in assay [4], > 100 µM; in [5], > 100 µM; in [6], > 100 µM. For the same compound, the TGI in [7] and in [8] was > 100 µM throughout.
`COc1ccc(/C=C2\C[C@H]3[C@@H]4CCC5=C[C@@H](N6CCCC6)CC[C@]5(C)[C@H]4CC[C@]3(C)[C@H]2O)cc1`: the TGI in assay [1] is 3.28 µM; in [2], 4.6 µM; in [9] it was 4.21 µM; in assay [3], 8.04 µM; in assay [4], > 29.2 µM; in assay [5], 4.47 µM. Also, the TGI came out at 20.8 µM in assay [6] and 16.8 µM in assay [8].
For `CC(N)C(C)Cc1ccccc1` (stereo not drawn), the TGI in assay [1], in [2], in [9], in assay [3], in assay [4] and in assay [5] was > 100 µM throughout. Further, the TGI in [6] and in assay [8] was > 100 µM throughout.
Consider `O=c1cc(N2CCOCC2)[nH]c(=O)n1-c1cccc(C(F)(F)F)c1`, for which the TGI in assay [1] is > 100 µM; in [2] it was 57 µM; in assay [9] it was > 100 µM; in assay [3], > 100 µM; in assay [5] it was > 100 µM; in assay [6], > 100 µM. Also, the TGI in [7] and in assay [8] was > 100 µM each time.
Regarding `C[C@H](Nc1c(O)c2c(c(O)c1Cl)C(=O)C=CC2=O)C(=O)Nc1ccc([N+](=O)[O-])cc1`, the TGI is 6.16 µM in [1]; 4.22 µM in [2]; 6.29 µM in assay [3]; > 10 µM in assay [4]; 3.04 µM in assay [5]; 3.22 µM in assay [6]. Also, the TGI in assay [7] was > 10 µM; in assay [8], 5.05 µM.
With `CC1=C2c3c(C)ccc4ccc(C)c(c34)C2(O)C(C)C1=O` (stereo not drawn), the TGI was > 100 µM in [1]; > 100 µM in [2]; 91.6 µM in [9]; > 100 µM in assay [3]; > 100 µM in assay [4]; > 100 µM in assay [5]. Also, the TGI in [6] was > 100 µM; in assay [8], 76 µM.
As for `COc1ccc(N=C(C)c2ccncc2)cc1`, the TGI in assay [1], in assay [2], in [3], in [4], in [5] and in [6] was > 100 µM each time. Moreover, the TGI in [7] and in [8] was > 100 µM throughout.
Consider `Cc1ccc(-c2c(C#N)c(S)n(NS(=O)(=O)c3ccc(C)cc3)c(=O)c2C#N)cc1`, for which the TGI in [1] was > 100 µM; in [2] it was > 100 µM; in [9] it was > 100 µM; in assay [4], > 100 µM; in [5], 52.8 µM; in [6], > 100 µM. In addition, the TGI was > 100 µM in [7] and 77.9 µM in assay [8].
Turning to `N#Cc1c(-c2ccc([N+](=O)[O-])cc2)cc(-c2ccc(Nc3ccnc4cc(C(F)(F)F)ccc34)cc2)nc1N`, the TGI was > 100 µM in assay [1]; 41.7 µM in assay [2]; > 66.5 µM in assay [3]; > 54.5 µM in assay [4]; 33.3 µM in assay [5]; > 43.3 µM in assay [6]. The TGI was > 29.7 µM in [7] and 35.3 µM in [8].
For `CN(C)c1ccc(/C=C(\C#N)C(N)=C(C#N)C#N)cc1`, the TGI in assay [1], in assay [2], in assay [9], in [3], in assay [5] and in assay [6] was > 100 µM each time. For the same compound, the TGI in [7] and in assay [8] was > 100 µM each time.
As to `O=C(CC(=O)N1N=C(N2CCCCC2)CC1c1ccccc1)Nc1ccc(Cl)cc1` (stereo not drawn), the TGI in [1], in [2], in [9], in assay [3], in assay [5] and in assay [6] was > 100 µM in each case. The TGI in assay [7] and in assay [8] was > 100 µM each time.
As to `COc1ccc2nc3ccc(OC)cc3c(S(=O)(=O)Cc3ccc([N+](=O)[O-])cc3)c2c1`, the TGI in assay [1], in assay [2], in assay [9], in [3], in assay [5] and in assay [6] was > 100 µM each time. Further, the TGI in assay [7] and in assay [8] was > 100 µM in each case.
On to `CCCCCNc1nonc1N`, for which the TGI in assay [1], in [2], in assay [3], in [4], in [5] and in assay [6] was > 100 µM in each case. Further, the values for the TGI in assay [7] and in assay [8] were > 31.6 µM and > 100 µM, respectively.
Take `COc1cc(-c2oc3c(OC)c(O)c(OC)c(O)c3c(=O)c2OC)cc(O)c1OC`: the TGI was 71.8 µM in assay [1]; > 100 µM in assay [2]; 57.9 µM in assay [9]; > 100 µM in [4]; 77.6 µM in [5]; > 100 µM in assay [6]. Further, the TGI in assay [7] was 79.4 µM; in assay [8], 52.7 µM.
